Results taken from patent US7989438B2, “Therapeutic compounds” (Istituto di Ricerche di Biologia Molecolare P. Angeletti SpA, priority 2007, dated 2011).
Like-named read-outs stand apart in the source and are kept apart here.

System: HCV subgenomic replication
Assay: Cell based HCV replication assay (subgenomic replicon in Huh-7 cells, NS3 Cell-ELISA)
Conditions: activity ranges
Source text: Cell clones that stably maintain subgenomic HCV replicon were obtained by transfecting Huh-7 cells with an RNA replicon identical to I377neo/NS3-3′/wt described by Lohmann et al. (1999) (EMBL-genbank No. AJ242652), followed by selection with neomycin sulfate (G418). Viral replication was monitored by measuring the expression of the NS3 protein by an ELISA assay performed directly on cells grown in 96 wells microtiter plates (Cell-ELISA) using the anti-NS3 monoclonal antibody 10E5/24 (as described in published International application WO 02/59321). Cells were seeded into 96 well plates at a density of 10^4 cells per well in a final volume of 0.1 ml of DMEM/10% FCS. Two hours after plating, 50 μl of DMEM/10% FCS containing a 3× concentration of inhibitor were added, cells were incubated for 96 hours and then fixed for 10 minutes with ice-cold isopropanol. Each condition was tested in duplicate and average absorbance values were used for calculations. The cells were washed twice with PBS, blocked with 5% non-fat dry milk in PBS+0.1% Triton X100+0.02% SDS (PBSTS) and then incubated o/n at 4° C. with the 10E5/24 mab diluted in Milk/PBSTS. After washing 5 times with PBSTS, the cells were incubated for 3 hours at room temperature with Fc specific anti-mouse IgG conjugated to alkaline phosphatase (Sigma), diluted in Milk/PBSTS. After washing again as above, the reaction was developed with p-Nitrophenyl phosphate disodium substrate (Sigma) and the absorbance at 405/620 nm read at intervals. For calculations, we used data sets where samples incubated without inhibitors had absorbance values comprised between 1 and 1.5. The inhibitor concentration that reduced by 50% the expression of NS3 (IC50) was calculated by fitting the data to the Hill equation, Fraction inhibition=1−(Ai−b)/(A0−b)=[I]^n/([I]^n+[…]) where: • Ai=absorbance value of HBI10 cells supplemented with the indicated inhibitor concentration. • A0=absorbance value of HBI10 cells incubated without inhibitor. • b=absorbance value of Huh-7 cells plated at the same density in the same microtiter plates and incubated without inhibitor. • n=Hill coefficient.

[1] = Table A, Huh-7 replicon cells, 96 hours, read-out: IC50 (nM), Inhibition of HCV subgenomic replication
[2] = Table 1, 16 membered macrocycles, read-out: IC50* (nM), Inhibition of HCV subgenomic replication
[3] = Table 5, various macrocycles, read-out: IC50* (nM), Inhibition of HCV subgenomic replication
[4] = Hepatitis C virus, Table A, Huh-7 replicon cells, 96 hours, read-out: IC50 (nM), Inhibition of HCV subgenomic replication
[5] = Table 2, various macrocycles, read-out: IC50* (nM), Inhibition of HCV subgenomic replication

CN1CCOCC2COc3ccccc3-c3c(C4CCCCC4)c4ccc(cc4n3C2)C(=O)NS(=O)(=O)N(C)CC1 (single isomer, unassigned) [Compound A39, (7R or 7S)-14-cyclohexyl-18,21-dimethyl-7,8-dihydro-6H-7,11-(methanooxyethanoiminoethanoiminothioiminomethano)indolo[1,2-e][1,5]benzoxazocin-15-one 17,17-dioxide]
IC50 [1]: < 25 nM

CC(C)N1CCN(C)C2COc3ccccc3-c3c(C4CCCCC4)c4ccc(cc4n3C2)C(=O)NS(=O)(=O)N(C)CC1 [Compound A4, (7R)-14-cyclohexyl-21-isopropyl-18,24-dimethyl-7,8-dihydro-6H-7,11-(epiminoethanoiminoethanoiminothioiminomethano)indolo[1,2-e][1,5]benzoxazocin-15-one 17,17-dioxide]
IC50 [1]: < 25 nM

CN1CCCCN(C)S(=O)(=O)NC(=O)c2ccc3c(C4CCCCC4F)c4n(c3c2)CC(COc2ccccc2-4)C1 (single isomer, unassigned) [Compound A16, (7R,S)-14-[(1R,2S) or (1S,2R)-2-fluorocyclohexyl]-18,23-dimethyl-7,8-dihydro-6H-11,7-(methanoiminothioiminobutanoiminomethano)indolo[1,2-e][1,5]benzoxazocin-15-one 17,17-dioxide]
IC50 [1]: 25 to 150 nM

CN(C)CCN1CCOCCN(C)S(=O)(=O)NC(=O)c2ccc3c(C4CCCCC4)c4n(c3c2)CC1COc1ccccc1-4 [Example 402, (7R)-14-cyclohexyl-24-[2-(dimethylamino)ethyl]-18-methyl-7,8-dihydro-6H-7,11-(epiminoethanooxyethanoiminothioiminomethano)indolo[1,2-e][1,5]benzoxazocin-15-one 17,17-dioxide]
IC50 (Table 4, various macrocycles, read-out: IC50* (nM), Inhibition of HCV subgenomic replication): < 25 nM

CC(C)CN1CCN(C)C2COc3ccccc3-c3c(C4CCCCC4)c4ccc(cc4n3C2)C(=O)NS(=O)(=O)N(C)CC1 [Example 104, (7R)-14-cyclohexyl-21-isobutyl-18,24-dimethyl-7,8-dihydro-6H-7,11-(epiminoethanoiminoethanoiminothioiminomethano)-indolo[1,2-e][1,5]benzoxazocin-15-one 17,17-dioxide]
IC50 [2]: < 25 nM

(7R)-14-cyclohexyl-4-methoxy-18,22-dimethyl-7,8-dihydro-6H-7,11-(ethanoiminopropanoiminothioiminomethano)indolo[1,2-e][1,5]benzoxazocin-15-one 17,17-dioxide [Compound A33]
IC50 [1]: < 25 nM

CC(C)N1CCCN(C)S(=O)(=O)NC(=O)c2ccc3c(C4CCCCC4)c4n(c3c2)CC(CC1)COc1ccccc1-4 (single isomer, unassigned) [Example 506, (7R) or (7S)-14-cyclohexyl-22-isopropyl-18-methyl-7,8-dihydro-6H-7,11-(ethanoiminopropanoiminothioiminomethano)indolo[1,2-e][1,5]benzoxazocin-15-one 17,17-dioxide]
IC50 [3]: < 25 nM

O=C1NS(=O)(=O)N2CCN(CCN3CC4(COc5ccccc5-c5c(C6CCCCC6)c6ccc1cc6n5C4)C3)CC2 [Compound A23, 31-cyclohexyl-8-oxa-24-thia-1,4,16,23,25-pentaazaheptacyclo[23.2.2.1^4,6.1^6,16.1^15,18.1^17,21.0^9,14]tritriaconta-9,11,13,15(31),17(30),18,20-heptaen-22-one 24,24-dioxide]
IC50 [4]: 25 to 150 nM

CCN1CCN(CCNC)C2COc3cc(F)ccc3-c3c(C4CCCCC4)c4ccc(cc4n3C2)C(=O)NS(=O)(=O)N(C)CC1 [Example 208, (7R)-14-cyclohexyl-21-ethyl-3-fluoro-18-methyl-24-[2-(methylamino)ethyl]-7,8-dihydro-6H-7,11-(epiminoethanoiminoethanoiminothioiminomethano)-indolo[1,2-e][1,5]benzoxazocin-15-one 17,17-dioxide]
IC50 [5]: 25 to 150 nM

COc1cccc2c1OCC1Cn3c-2c(C2CCCCC2)c2ccc(cc23)C(=O)NS(=O)(=O)N(C)CCN(Cc2cnn(C)c2)CCN1C [Compound A29, (7R)-14-cyclohexyl-4-methoxy-18,24-dimethyl-21-[(1-methyl-1H-pyrazol-4-yl)methyl]-7,8-dihydro-6H-7,11-(epiminoethanoiminoethanoiminothioiminomethano)indolo[1,2-e][1,5]benzoxazocin-15-one 17,17-dioxide]
IC50 [1]: < 25 nM

CN1CCN2CCN(CC2)S(=O)(=O)NC(=O)c2ccc3c(C4CCCCC4)c4n(c3c2)C[C@@H]1COc1ccccc1-4 [Compound A6, (20R)-30-cyclohexyl-21-methyl-18-oxa-2-thia-1,3,10,21,24-pentaazahexacyclo[22.2.2.1^5,9.1^8,11.1^10,20.0^12,17]hentriaconta-5(31),6,8,11(30),12,14,16-heptaen-4-one 2,2-dioxide]
IC50 [4]: 25 to 150 nM

CCN1CCN(C)C2COc3ccccc3-c3c(C4CCCCC4)c4ccc(cc4n3C2)C(=O)NS(=O)(=O)N(CCO)CC1 [Example 106, (7R)-14-cyclohexyl-21-ethyl-18-(2-hydroxyethyl)-24-methyl-7,8-dihydro-6H-7,11-(epiminoethanoiminoethanoiminothioiminomethano)-indolo[1,2-e][1,5]benzoxazocin-15-one 17,17-dioxide]
IC50 [2]: < 25 nM

CN1CCN(C)C2COc3cc(OCc4ccccn4)ccc3-c3c(C4CCCCC4)c4ccc(cc4n3C2)C(=O)NS(=O)(=O)N(C)CC1 [Compound A8, (7R)-14-cyclohexyl-18,21,24-trimethyl-3-(pyridin-2-ylmethoxy)-7,8-dihydro-6H-7,11-(epiminoethanoiminoethanoiminothioiminomethano)indolo[1,2-e][1,5]benzoxazocin-15-one 17,17-dioxide]
IC50 [1]: < 25 nM

CN1CCCN(C)S(=O)(=O)NC(=O)c2ccc3c(C4CCCCC4)c4n(c3c2)CC(CC1)COc1ccccc1-4 (single isomer, unassigned; (-)) [Compound A14, (−)-14-cyclohexyl-18,22-dimethyl-7,8-dihydro-6H-7,11-(ethanoiminopropanoiminothioiminomethano)indolo[1,2-e][1,5]benzoxazocin-15-one 17,17-dioxide]
IC50 [1]: < 25 nM

COc1cccc2c1OCC1Cn3c-2c(C2CCCCC2)c2ccc(cc23)C(=O)NS(=O)(=O)N(C)CCOCCN1C [Example 519, (7R)-14-cyclohexyl-4-methoxy-18,24-dimethyl-7,8-dihydro-6H-7,11-(epiminoethanooxyethanoiminothioiminomethano)indolo[1,2-e][1,5]benzoxazocin-15-one 17,17-dioxide]
IC50 [3]: 25 to 150 nM

Cc1ccc2c(c1)OCC1Cn3c-2c(C2CCCCC2)c2ccc(cc23)C(=O)NS(=O)(=O)N(C)CCN(C)CCN1C [Example 216, (7R)-14-cyclohexyl-3,18,21,24-tetramethyl-7,8-dihydro-6H-7,11-(epiminoethanoiminoethanoiminothioiminomethano)-indolo[1,2-e][1,5]benzoxazocin-15-one 17,17-dioxide]
IC50 [5]: < 25 nM

CN1CCOC2COc3ccccc3-c3c(C4CCCCC4)c4ccc(cc4n3C2)C(=O)NS(=O)(=O)N(C)CC1 [Compound A7, (7S)-14-cyclohexyl-18,21-dimethyl-7,8-dihydro-6H-7,11-(epoxyethanoiminoethanoiminothioiminomethano)indolo[1,2-e][1,5]benzoxazocin-15-one 17,17-dioxide]
IC50 [1]: 25 to 150 nM
